Source: patent US20060069132A1, “Azolecarboxamide herbicides” (priority 2004, published 2006)

Assays:
rice = test: Test B flooded paddy test; assay type: in vivo, Oryza sativa; settings: 1000 g ai/ha, scale 0 to 100 (0 no effect, 100 complete control)
Procedure, shortened: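 Plants grow to 1- to 4-leaf stage (2–18 cm) for postemergence spraying, or to 2-leaf stage for the paddy test. Formulated compound is applied. Greenhouse holding lasts 13–15 days. Response is scored visually relative to controls, 0 no effect to 100 complete control; a dash means no result.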

Surinam grass = test: Test B pre-/postemergence herbicide test; assay type: in vivo, Urochloa decumbens
Procedure, shortened: (§1)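 Pre: seeds sown, then sprayed. Post: 1–4-leaf plants (2–18 cm) sprayed at the same time. Paddy: flooded, treated at 2-leaf stage. Formulation: non-phytotoxic solvent with surfactant. Greenhouse 13–15 days; visual 0–100 score relative to controls.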

windgrass = test: Test C postemergence herbicide test; assay type: in vivo, Apera spica-venti
Procedure: (§2) At the same time, plants selected from these crop and weed species and also winter barley (Hordeum vulgare L.), blackgrass (Alopecurus myosuroides Huds.), canarygrass (Phalaris minor Retz.), chickweed (Stellaria media (L.) Vill.), downy bromegrass (Bromus tectorum L.), green foxtail (Setaria viridis (L.) Beauv.), Italian ryegrass (Lolium multiflorum Lam.), wheat (Triticum aestivum L.), wild oat (Avenafatua L.) and windgrass (Apera spica-venti (L.) Beauv.) were treated with postemergence applications of some of the test chemicals formulated in the same manner. Plants ranged in height from 2 to 18 cm (1- to 4-leaf stage) for postemergence treatments. Plant species in the flooded paddy test consisted of rice (Oryza sativa), smallflower umbrella sedge (Cyperus difformis L.), ducksalad (Heteranthera limosa (Sw.) Willd.) and barnyardgrass (Echinochloa crus-galli (L.) Beauv.) grown to the 2-leaf stage for testing. Treated plants and controls were maintained in a greenhouse for 12 to 14 days, after which time all species were compared to controls and visually evaluated. Plant response ratings, summarized in Table C, are based on a scale of 0 to 100 where 0 is no effect and 100 is complete control. A dash (-) response means no test result.

ducksalad = test: Test B flooded paddy test; assay type: in vivo, Heteranthera limosa; settings: 1000 g ai/ha, scale 0 to 100 (0 no effect, 100 complete control)
Procedure, shortened: (§3)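 Formulated test chemicals went onto postemergence plants measuring 2 to 18 cm, at one to four leaves. For the paddy assay, species had reached two leaves. Scoring took place 13–15 days later by eye, relative to untreated plants, using 0 for no effect up to 100 for full control.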

winter barley = test: Test C postemergence herbicide test; assay type: in vivo, Hordeum vulgare
Procedure: as §2

large crabgrass = test: Test B pre-/postemergence herbicide test; assay type: in vivo, Digitaria sanguinalis
Procedure, shortened: as §1

wheat [1] = test: Test C postemergence herbicide test; assay type: in vivo, Triticum aestivum
Procedure: as §2

wheat [2] = test: Test B postemergence herbicide test; assay type: in vivo, Triticum aestivum; set-up: key to Wheat plant response rating: 0 = no effect, 100 = complete control
Procedure, shortened: (§4)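 Treated at 2-leaf (paddy) or 1–4-leaf, 2–18 cm (postemergence); greenhouse 13–15 d; visual score vs control, 0 none to 100 complete control; dash = not tested.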

lambsquarters = test: Test B pre-/postemergence herbicide test; assay type: in vivo, Chenopodium album
Procedure, shortened: as §1

[3] = system: small flower umbrella sedge; test: Test B flooded paddy test; assay type: in vivo, Cyperus difformis; settings: 1000 g ai/ha, scale 0 to 100 (0 no effect, 100 complete control)
Procedure, shortened: as §3

downy bromegrass = test: Test C postemergence herbicide test; assay type: in vivo, Bromus tectorum
Procedure: as §2

barnyardgrass [4] = test: Test B flooded paddy test; assay type: in vivo, Echinochloa crus-galli; settings: 1000 g ai/ha, scale 0 to 100 (0 no effect, 100 complete control)
Procedure, shortened: as §3

cocklebur = test: Test B pre-/postemergence herbicide test; assay type: in vivo, Xanthium strumarium
Procedure, shortened: (§5)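 Plants compared with untreated controls 13–15 days post-treatment and given a visual 0–100 injury score. Applications: preemergence to seeds; postemergence at 1- to 4-leaf (2–18 cm); paddy species flooded, 2-leaf stage. Vehicle non-phytotoxic, surfactant included.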

barnyardgrass [5] = test: Test B pre-/postemergence herbicide test; assay type: in vivo, Echinochloa crus-galli; settings: for Barnyardgrass plant response rating: Postemergence, scale 0 (no effect) to 100 (complete control)
Procedure, shortened: as §5

canarygrass = test: Test C postemergence herbicide test; assay type: in vivo, Phalaris minor
Procedure: as §2

Italian ryegrass = test: Test C postemergence herbicide test; assay type: in vivo, Lolium multiflorum
Procedure: as §2

blackgrass [6] = test: Test C postemergence herbicide test; assay type: in vivo, Alopecurus myosuroides
Procedure: as §2

blackgrass [7] = test: Test B postemergence herbicide test; assay type: in vivo, Alopecurus myosuroides
Procedure, shortened: as §3

pigweed = test: Test B pre-/postemergence herbicide test; assay type: in vivo, Amaranthus retroflexus
Procedure, shortened: as §1

wild oat [8] = test: Test C postemergence herbicide test; assay type: in vivo, Avenafatua
Procedure: as §2

green foxtail = test: Test C postemergence herbicide test; assay type: in vivo, Setaria viridis
Procedure: as §2

morningglory = test: Test B pre-/postemergence herbicide test; assay type: in vivo, Ipomoea coccinea
Procedure, shortened: as §5

wild oat [9] = test: Test B postemergence herbicide test; assay type: in vivo, Avena fatua
Procedure, shortened: as §4

corn = test: Test B pre-/postemergence herbicide test; assay type: in vivo, Zea mays
Procedure, shortened: as §1

giant foxtail = test: Test B pre-/postemergence herbicide test; assay type: in vivo, Setaria faberi
Procedure, shortened: as §1

velvetleaf = test: Test B pre-/postemergence herbicide test; assay type: in vivo, Abutilon theophrasti
Procedure, shortened: as §1

[10] = 125 g ai/ha, 0 is no effect, 100 is complete control, preemergence
[11] = Postemergence, 500 g ai/ha, scale 0 (no effect) to 100 (complete control)
[12] = postemergence, 125 g ai/ha, scale 0 to 100
[13] = Postemergence, 500 g ai/ha, scale 0 to 100, 0 no effect, 100 complete control
[14] = postemergence, 62 g ai/ha, scale 0 to 100
[15] = Postemergence, 500 g ai/ha, scale 0 to 100
[16] = Postemergence, 250 g ai/ha, scale 0 to 100, 0 no effect, 100 complete control

CN(C)C(=O)c1cccc(NC(=O)c2nn(C(C)(C)C)nc2Br)c1 [Compound 429]
Rice plant response rating (rice): 70 | Plant response rating (0 to 100 scale), Surinam Grass (Surinam grass; [10]): 70 | Surinam Grass plant response rating (Surinam grass; [11]): 30 | Surinam Grass plant response rating (Surinam grass; [12]): 20 | Plant response rating, Windgrass (windgrass; [13]): 60 | Plant response rating, Windgrass (windgrass; [12]): 40 | Plant response rating, Windgrass (windgrass; [14]): 40 | Ducksalad plant response rating (ducksalad): 60 | Barley, Winter plant response rating (winter barley; [15]): 40 | Plant response rating, Barley, Winter (winter barley; Postemergence, 125 g ai/ha, scale 0 to 100, 0 no effect, 100 complete control): 35 | Plant response rating, Barley, Winter (winter barley; [16]): 35 | Plant response rating, Barley, Winter (winter barley; postemergence, 62 g ai/ha, scale 0 to 100 (0 no effect, 100 complete control)): 25 | Plant response rating (0 to 100 scale), Crabgrass, Large (large crabgrass; [10]): 100 | Crabgrass, Large plant response rating (large crabgrass; [11]): 40 | Crabgrass, Large plant response rating (large crabgrass; [12]): 30 | Plant response rating, Wheat (wheat [1]; [13]): 45 | Plant response rating, Wheat (wheat [1]; [12]): 35 | Plant response rating, Wheat (wheat [1]; [14]): 25 | Wheat plant response rating (wheat [2]; 500 g ai/ha, scale 0 to 100, 0 no effect, 100 complete control, preemergence): 100 | Wheat plant response rating (wheat [2]; [11]): 40 | Wheat plant response rating (wheat [2]; [12]): 20 | Plant response rating (0 to 100 scale), Lambsquarters (lambsquarters; [10]): 100 | Lambsquarters plant response rating (lambsquarters; [11]): 70 | Lambsquarters plant response rating (lambsquarters; [12]): 50 | Sedge, Umbrella plant response rating [3]: 90 | Plant response rating, Bromegrass, Downy (downy bromegrass; [16]): 45 | Plant response rating, Bromegrass, Downy (downy bromegrass; [13]): 55 | Plant response rating, Bromegrass, Downy (downy bromegrass; [12]): 40 | Plant response rating, Bromegrass, Downy (downy bromegrass; [14]): 40 | Barnyardgrass plant response rating (barnyardgrass [4]): 100 | Plant response rating (0 to 100 scale), Cocklebur (cocklebur; [10]): 60 | Cocklebur plant response rating (cocklebur; [11]): 70 | Cocklebur plant response rating (cocklebur; [12]): 60 | Plant response rating (0 to 100 scale), Barnyardgrass (barnyardgrass [5]; [10]): 100 | Barnyardgrass plant response rating (barnyardgrass [5]; 125 g ai/ha): 30 | Barnyardgrass plant response rating (barnyardgrass [5]; 500 g ai/ha): 60 | Plant response rating, Canarygrass (canarygrass; [16]): 55 | Plant response rating, Canarygrass (canarygrass; [13]): 60 | Plant response rating, Canarygrass (canarygrass; [12]): 40 | Plant response rating, Canarygrass (canarygrass; [14]): 20 | Plant response rating, Ryegrass, Italian (Italian ryegrass; [13]): 60 | Plant response rating, Ryegrass, Italian (Italian ryegrass; [12]): 50 | Plant response rating, Ryegrass, Italian (Italian ryegrass; [14]): 45 | Blackgrass plant response rating (blackgrass [6]; [15]): 65 | Plant response rating, Blackgrass (blackgrass [6]; [16]): 60 | Plant response rating, Blackgrass (blackgrass [6]; [12]): 60 | Plant response rating, Blackgrass (blackgrass [6]; [14]): 45 | Blackgrass plant response rating (blackgrass [7]; [11]): 50 | Blackgrass plant response rating (blackgrass [7]; [12]): 20 | Plant response rating (0 to 100 scale), Pigweed (pigweed; [10]): 100 | Pigweed plant response rating (pigweed; [11]): 50 | Pigweed plant response rating (pigweed; [12]): 40 | Plant response rating, Oat, Wild (wild oat [8]; [13]): 65 | Plant response rating, Oat, Wild (wild oat [8]; [12]): 60 | Plant response rating, Oat, Wild (wild oat [8]; [14]): 45 | Plant response rating, Foxtail, Green (green foxtail; [16]): 55 | Plant response rating, Foxtail, Green (green foxtail; [13]): 65 | Plant response rating, Foxtail, Green (green foxtail; [12]): 50 | Plant response rating, Foxtail, Green (green foxtail; [14]): 40 | Plant response rating (0 to 100 scale), Morningglory (morningglory; [10]): 90 | Morningglory plant response rating (morningglory; [11]): 80 | Morningglory plant response rating (morningglory; [12]): 70 | Oat, Wild plant response rating (wild oat [9]; [11]): 40 | Oat, Wild plant response rating (wild oat [9]; [12]): 30 | Plant response rating (0 to 100 scale), Corn (corn; [10]): 40 | Corn plant response rating (corn; [11]): 40 | Corn plant response rating (corn; [12]): 30 | Plant response rating (0 to 100 scale), Foxtail, Giant (giant foxtail; [10]): 90 | Foxtail, Giant plant response rating (giant foxtail; [11]): 40 | Foxtail, Giant plant response rating (giant foxtail; [12]): 30 | Plant response rating (0 to 100 scale), Velvetleaf (velvetleaf; [10]): 80 | Velvetleaf plant response rating (velvetleaf; [11]): 60 | Velvetleaf plant response rating (velvetleaf; [12]): 50
